Source: patent US10000469B2, “Heat shock protein 70 (hsp-70) receptor ligands” (Duke University, priority 2014, dated 2018)

Assays:
[1] = system: caspase-3/7; assay: Caspase 3/7 assay in cancer cells; assay type: cell-based
Method: Caspase 3/7 Assay: The Amplite™ Fluorimetric Caspase3/7 assay kit (AAT Bioquest, Sunnyvale, Calif.) was used per the manufacturer's instructions. Briefly, a fluorometric indicator, Ac-DEVD-AMC, was used to determine caspase activity. […] Cells were seeded at 60,000 cells/well in a 96 well plate and treated with compound for the indicated period of time. Diluted caspase 3/7 assay solution was added to each well and incubated at room temperature for 2 hours protected from light, upon which time fluorescence was measured on the Victor X2 plate reader (Perkin Elmer, Waltham, Mass.).

[2] = system: BT474; assay: Cell proliferation, BT474; assay type: cell-based
Method: (§1) Cell Proliferation: Cell proliferation was determined using a Hoechst stain (Sigma, St. Louis, Mo.) to quantify DNA. 5,000 cells of the designated cell line were plated in 96 well plates and treated the next day, designated as time point 0, with the indicated concentration of the specified compound maintained for the duration of the assay. At the indicated time points the media was removed and plated frozen at −80° C. Double distilled H2O was then added and the plates were incubated at 37° C. for 1 hour. After 1 hour the plates were frozen at −80° C. After freezing the plates were thawed and Hoechst stain was diluted 1:1000 in THE buffer (10 mM Tris, 2M NaCl, 1 mM Na2EDTA). The final fluorescence was measured on the Victor X2 plate reader at 355/460 nm, and cell proliferation was determined with the formula: % Cell Proliferation=100×(Sample fluorescence−background fluorescence)/(Control fluorescence−background fluorescence).

[3] = target: T1, Hsc70 (Homo sapiens, UniProt P11142); assay: Thermofluor assay, purified Hsc70; assay type: binding; details: ±ATP
T1 construct: His tag (cleaved yes); made in house
Method: (§2) Protein Purification: Plasmids were provided for human HSPA1A, HSPA8, and HSPA1A C306D. Plasmids were transformed in Rosetta competent cells and single colonies were picked from streaked LB/ampicillin/chloramphenicol plates. Cultures were grown at 37° C. for 4-6 hours, were cooled to 15° C. and expression was induced overnight with 200 uM isopropyl 1-thio-β-D-galactopyranoside. Cells were pelleted and resuspended in Ni-lysis buffer (50 mM Na2HPO4, 300 mM NaCl, 10 mM Imidazole, 0.05% Tween-20) supplemented with Complete Mini protease inhibitor tablets (Roche, Mannheim, Germany) and […], and then sonicated. The cells were again pelleted and the supernatant was incubated with complete His-Tag purification resin (Roche, Mannheim, Germany) for 5 hours at 4° C. The resin was washed with Ni-wash buffer (50 mM Na2HPO4, 300 mM NaCl, 20 mM Imidazole, 0.05% Tween-20) and eluted with Ni-elution buffer (50 mM Na2HPO4, 300 mM NaCl, 250 mM Imidazole, 0.05% Tween-20). […]
(§3) Thermofluor Assay: SYPRO orange (Molecular Probes, Eugene, Oreg.) was diluted 1:1000 in 25 mM HEPES, 5 mM MgCl2, 10 mM KCl (pH 7.5) and purified Hsp70i, Hsc70, Hsp70i C306, or Hsp90, was then added to a final dilution of 0.04 mg/ml. […] A melt curve protocol (25° C. to 90° C., increasing 0.5° C. and a plate reading every 30 seconds) was run on a CFX384 Touch™ Real-Time PCR Detection System (BioRad). […]

[4] = system: MCF7; assay: Cell proliferation, MCF7; assay type: cell-based; details: MCF7
Method: as §1

[5] = system: MMTV-neu mice; assay: HS-72 in vivo efficacy study; design: species or system mouse; details: for tumor volume vs. no treatment: at 21 days, p<0.05
Method: HS-72 in vivo Efficacy Studies: MMTV-neu mice, a HER2 overexpression breast cancer mouse model in which HER2 is under the transcriptional control of the mouse mammary tumor virus promoter/enhancer, were treated with the indicated doses and dosing schedule [Taneja et al., 2009]. All doses were delivered through IP injections using DMSO and their tumors were calipered once weekly. The mice were culled upon reaching tumor burden or if they expressed signs of toxicity as per MP1U standard protocol.

[6] = target: Hsp70i (Homo sapiens, UniProt P0DMV8); assay: Partial proteolysis of Hsp70i with trypsin; design: Full length Hsp70 (black arrow) and tryptic fragments (blue arrows); His tag (cleaved yes); made in house; details: 100 uM compound, silver stain
Method: Mass Spectrometry: Tryptic peptides were subjected to matrix-assisted laser desorption-ionization mass spectrometry (MALDI-MS) on an ABSCIEX TOF/TOF 5800 mass spectrometer. Positive mode time of flight was used to identify peptides, and individual peptides were sequenced by MS/MS. All sequence and peptide fingerprint data was searched using the UniProt database.
Partial Proteolysis: Hsp70i (8 μg for SDS-PAGE analysis, 2 μg for mass spec analysis) was incubated with 1 mM ATP, 1 mM ADP, 100 uM HS72, 100 uM HS72+1 mM ATP, or 100 uM HS72+1 mM ADP for 30 min. at room temperature. Hsp70i was digested by adding 0.1 μg of trypsin (Promega, Madison, Wis.) per 2 μg of protein and was quenched by addition of 25% TFA for mass spec analysis or addition of 5×SDS loading buffer and boiling for SDS-PAGE analysis at 2 hours, or 24 hours. Gels were visualized by silver stain.

[7] = system: LnCaP prostate cancer cell lines; assay: Cell proliferation, LNCaP; assay type: cell-based
Method: as §1

[8] = system: NF639; assay: Cell proliferation, NF639; assay type: cell-based, mouse
Method: as §1

[9] = target: T2, Hsp70i C306D mutant (Homo sapiens, UniProt P0DMV8, C306D); assay: Thermofluor assay, Hsp70i C306D mutant; assay type: binding; details: ±ATP
T2 construct: His tag (cleaved yes); made in house
Method: as §2, §3

Sequence of Hsp70i (P0DMV8 whole entry, the tested form may be a part): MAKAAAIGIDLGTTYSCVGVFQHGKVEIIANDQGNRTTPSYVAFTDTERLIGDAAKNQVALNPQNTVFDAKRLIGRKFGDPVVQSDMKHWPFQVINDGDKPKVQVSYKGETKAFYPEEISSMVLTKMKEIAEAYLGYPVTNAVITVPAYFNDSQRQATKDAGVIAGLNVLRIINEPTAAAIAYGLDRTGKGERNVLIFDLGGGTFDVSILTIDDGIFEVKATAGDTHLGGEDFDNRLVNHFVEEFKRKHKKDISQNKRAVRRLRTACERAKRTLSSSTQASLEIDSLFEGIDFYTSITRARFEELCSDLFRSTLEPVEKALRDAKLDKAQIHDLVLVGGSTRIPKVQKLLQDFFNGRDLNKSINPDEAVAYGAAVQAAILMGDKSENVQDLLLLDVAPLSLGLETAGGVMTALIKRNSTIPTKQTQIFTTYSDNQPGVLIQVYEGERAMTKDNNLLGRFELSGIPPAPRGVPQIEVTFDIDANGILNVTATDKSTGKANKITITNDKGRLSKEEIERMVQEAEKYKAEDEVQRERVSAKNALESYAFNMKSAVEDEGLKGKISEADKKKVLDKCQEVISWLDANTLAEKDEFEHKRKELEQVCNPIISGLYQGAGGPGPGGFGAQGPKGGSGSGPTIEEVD
T1 sequence (P11142 whole entry): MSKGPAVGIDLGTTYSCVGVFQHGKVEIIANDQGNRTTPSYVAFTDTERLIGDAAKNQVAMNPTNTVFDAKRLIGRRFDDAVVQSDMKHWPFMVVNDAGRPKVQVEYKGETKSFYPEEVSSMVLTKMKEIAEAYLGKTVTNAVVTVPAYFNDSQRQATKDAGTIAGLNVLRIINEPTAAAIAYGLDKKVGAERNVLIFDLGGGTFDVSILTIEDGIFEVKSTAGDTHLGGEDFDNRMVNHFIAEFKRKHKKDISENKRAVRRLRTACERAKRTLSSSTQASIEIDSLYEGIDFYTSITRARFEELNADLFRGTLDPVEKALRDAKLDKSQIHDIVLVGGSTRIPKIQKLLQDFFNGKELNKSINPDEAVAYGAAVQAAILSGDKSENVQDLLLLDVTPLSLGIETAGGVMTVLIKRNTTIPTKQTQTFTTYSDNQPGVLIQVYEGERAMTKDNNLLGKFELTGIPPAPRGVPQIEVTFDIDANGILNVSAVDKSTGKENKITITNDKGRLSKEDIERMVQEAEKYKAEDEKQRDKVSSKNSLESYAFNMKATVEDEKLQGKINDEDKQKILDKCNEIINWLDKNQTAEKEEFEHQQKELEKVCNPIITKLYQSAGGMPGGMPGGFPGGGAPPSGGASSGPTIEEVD
T2 sequence (P0DMV8 whole entry C306D): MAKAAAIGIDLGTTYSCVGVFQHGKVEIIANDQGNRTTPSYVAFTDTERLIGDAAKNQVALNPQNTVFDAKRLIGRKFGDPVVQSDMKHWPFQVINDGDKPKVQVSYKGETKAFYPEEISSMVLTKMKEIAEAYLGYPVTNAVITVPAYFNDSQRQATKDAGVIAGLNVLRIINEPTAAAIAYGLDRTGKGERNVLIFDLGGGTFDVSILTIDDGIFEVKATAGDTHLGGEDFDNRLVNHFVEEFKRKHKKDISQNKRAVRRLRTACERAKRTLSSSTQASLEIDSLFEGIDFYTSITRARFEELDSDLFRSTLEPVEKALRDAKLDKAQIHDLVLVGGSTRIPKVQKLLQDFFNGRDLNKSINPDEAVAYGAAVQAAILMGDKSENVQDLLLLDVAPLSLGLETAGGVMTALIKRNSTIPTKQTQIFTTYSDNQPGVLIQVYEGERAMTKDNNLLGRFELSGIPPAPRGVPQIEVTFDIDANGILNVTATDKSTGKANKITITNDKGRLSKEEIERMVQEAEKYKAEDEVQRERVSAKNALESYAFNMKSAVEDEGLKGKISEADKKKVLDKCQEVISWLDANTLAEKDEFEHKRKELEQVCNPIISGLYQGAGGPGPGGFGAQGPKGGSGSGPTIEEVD

CCCn1c(NC(=O)[C@H]2CCCN(c3cnccn3)C2)nc2ccccc21 [HS-72, (S)—N-(1-propyl-1H-benzo[d]imidazol-2-yl)-1-(pyrazin-2-yl)piperidine-3-carboxamide]
caspase activation ([1]; 6 hours and 24 hours, dose dependent): reproducible across several cancer cell lines | caspase activation ([1]; various cancer cells): inducing caspase activation in a dose dependent manner | cell proliferation [2]: inhibits proliferation | effect on Tm of Hsc70 [3]: does not change | cell proliferation [4]: inhibits proliferation | cell proliferation, combination with HS-10 [4]: additive effect | cell proliferation, combination with HS-10 ([4]; listed as HS72): synergism | increase of median survival vs. no treatment ([5]; I.P. 20 mpk BiW): 6 days | tumor volume vs. no treatment ([5]; I.P. 20 mpk BiW, 20 mg/kg): significant reduction | tumor volume vs. no treatment ([5]; I.P. 20 mpk BiW, listed as HS72, 20 mg/kg): significant decrease | increase of median survival vs. no treatment ([5]; I.P. 20 mpk qd): 13 days | proteolytic pattern of Hsp70i [6]: profound difference in the proteolytic pattern | cell proliferation [7]: inhibits proliferation | cell proliferation, combination with HS-10 [8]: synergistic inhibition | cell proliferation ([8]; 25 uM and 50 uM at 24, 48, and 72 hours): inhibits proliferation | effect on Tm of the Hsp70i C306D mutant [9]: does not change
